Experimental data as given in patent publication US8003649B2 (AstraZeneca AB, priority 2007, dated 2011).

The molecules below were run against T1, Androgen Receptor (AR) (Homo sapiens, UniProt P10275, T878A) (assay: LNCaP Androgen Receptor Down-regulation Cell Assay (immunofluorescence end point)). Conditions: LNCaP prostate carcinoma cells, compound incubation 20-22 hours, 50% reduction of the AR signal; read-out: Androgen Receptor Down-regulation Assay (a) IC50/μM.
T1 construct: cell based immuno-fluorescence assay using the LNCaP prostate epithelial cell line; endogenous in cells; host or cells: LNCaP clone FGC (ATCC CRL-1740)
T1 sequence (P10275 1-920 T878A): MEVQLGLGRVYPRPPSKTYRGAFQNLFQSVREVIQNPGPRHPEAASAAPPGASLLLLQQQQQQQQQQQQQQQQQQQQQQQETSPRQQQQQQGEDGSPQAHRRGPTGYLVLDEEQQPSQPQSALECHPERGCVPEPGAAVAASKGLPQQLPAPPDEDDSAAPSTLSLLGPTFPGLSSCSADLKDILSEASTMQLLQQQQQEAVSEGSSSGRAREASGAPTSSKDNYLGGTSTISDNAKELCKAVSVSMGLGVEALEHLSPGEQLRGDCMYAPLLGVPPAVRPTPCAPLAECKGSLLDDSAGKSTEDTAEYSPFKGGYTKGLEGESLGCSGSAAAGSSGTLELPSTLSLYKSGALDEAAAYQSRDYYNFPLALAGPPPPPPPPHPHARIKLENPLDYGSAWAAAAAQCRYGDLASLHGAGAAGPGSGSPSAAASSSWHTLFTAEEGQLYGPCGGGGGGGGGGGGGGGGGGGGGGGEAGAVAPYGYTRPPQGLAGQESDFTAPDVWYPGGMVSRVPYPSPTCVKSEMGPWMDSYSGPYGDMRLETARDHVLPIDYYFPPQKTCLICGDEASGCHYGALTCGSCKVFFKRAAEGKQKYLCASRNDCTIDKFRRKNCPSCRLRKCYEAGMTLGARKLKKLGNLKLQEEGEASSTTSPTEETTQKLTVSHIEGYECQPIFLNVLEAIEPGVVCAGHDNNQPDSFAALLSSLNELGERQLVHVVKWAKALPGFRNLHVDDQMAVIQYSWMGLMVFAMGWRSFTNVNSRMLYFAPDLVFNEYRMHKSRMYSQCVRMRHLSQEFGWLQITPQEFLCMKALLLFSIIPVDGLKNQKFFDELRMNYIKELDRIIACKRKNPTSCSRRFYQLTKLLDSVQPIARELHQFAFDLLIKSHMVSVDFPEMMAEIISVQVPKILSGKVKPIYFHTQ
Type: cell-based
Procedure, shortened: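 AR loss reported as IC50 from curve fits of fluorescence dose-response data, with AR immunostained and read by laser-scanning cytometry. Compound exposure was 20-22 h at 37° C in LNCaP cells grown in 5% charcoal-stripped FBS and plated overnight beforehand.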

DC50 [µM] | SMILES
1.6 | N#CCOc1ccc(CN2CCN(c3ccc4nnc(C(F)(F)F)n4n3)CC2)cc1 [Example 154, 2-[4-[[4-[3-(trifluoromethyl)-[1,2,4]triazolo[4,3-b]pyridazin-6-yl]piperazin-1-yl]methyl]phenoxy]acetonitrile]
3 | CCCc1ccc(CN2CCN(c3ccc4nnc(C(F)(F)F)n4n3)CC2)cc1 [Example 158, 6-[4-[(4-propylphenyl)methyl]piperazin-1-yl]-3-(trifluoromethyl)-[1,2,4]triazolo[4,3-b]pyridazine]
1.4 | CCc1ccc(CN2CCN(c3ccc4nnc(C(F)(F)F)n4n3)CC2)cc1 [Example 159, 6-[4-[(4-ethylphenyl)methyl]piperazin-1-yl]-3-(trifluoromethyl)-[1,2,4]triazolo[4,3-b]pyridazine]
6.6 | FC(F)(F)c1nnc2ccc(N3CCN(Cc4ccc(N5CCOCC5)cc4)CC3)nn12 [Example 160, 6-[4-[(4-morpholin-4-ylphenyl)methyl]piperazin-1-yl]-3-(trifluoromethyl)-[1,2,4]triazolo[4,3-b]pyridazine]
1.4 | FC(F)Oc1ccc(CN2CCN(c3ccc4nnc(C(F)(F)F)n4n3)CC2)cc1 [Example 161, 6-[4-[[4-(difluoromethoxy)phenyl]methyl]piperazin-1-yl]-3-(trifluoromethyl)-[1,2,4]triazolo[4,3-b]pyridazine]
1 | FC(F)Oc1cccc(CN2CCN(c3ccc4nnc(C(F)(F)F)n4n3)CC2)c1 [Example 162, 6-[4-[[3-(difluoromethoxy)phenyl]methyl]piperazin-1-yl]-3-(trifluoromethyl)-[1,2,4]triazolo[4,3-b]pyridazine]
3.6 | CCOC(=O)/C=C/c1ccc(CN2CCN(c3ccc4nnc(C(F)(F)F)n4n3)CC2)cc1 [Example 163, ethyl (E)-3-[4-[[4-[3-(trifluoromethyl)-[1,2,4]triazolo[4,3-b]pyridazin-6-yl]piperazin-1-yl]methyl]phenyl]prop-2-enoate]
1.7 | CS(=O)(=O)c1ccccc1CN1CCCN(c2ccc3nnc(C(F)(F)F)n3n2)CC1 [Example 164, 6-[4-[(2-methylsulfonylphenyl)methyl]-1,4-diazepan-1-yl]-3-(trifluoromethyl)-[1,2,4]triazolo[4,3-b]pyridazine]
1.7 | CS(=O)(=O)c1cccc(CN2CCCN(c3ccc4nnc(C(F)(F)F)n4n3)CC2)c1 [Example 165, 6-[4-[(3-methylsulfonylphenyl)methyl]-1,4-diazepan-1-yl]-3-(trifluoromethyl)-[1,2,4]triazolo[4,3-b]pyridazine]
2.4 | COc1ccccc1CN1CCCN(c2ccc3nnc(C(F)(F)F)n3n2)CC1 [Example 167, 6-[4-[(2-methoxyphenyl)methyl]-1,4-diazepan-1-yl]-3-(trifluoromethyl)-[1,2,4]triazolo[4,3-b]pyridazine]
1.6 | FC(F)(F)c1ccc(CN2CCCN(c3ccc4nnc(C(F)(F)F)n4n3)CC2)cc1 [Example 168, 3-(trifluoromethyl)-6-[4-[[4-(trifluoromethyl)phenyl]methyl]-1,4-diazepan-1-yl]-[1,2,4]triazolo[4,3-b]pyridazine]
0.92 | Fc1ccccc1CN1CCCN(c2ccc3nnc(C(F)(F)F)n3n2)CC1 [Example 169, 6-[4-[(2-fluorophenyl)methyl]-1,4-diazepan-1-yl]-3-(trifluoromethyl)-[1,2,4]triazolo[4,3-b]pyridazine]
0.61 | N#Cc1ccc(CN2CCCN(c3ccc4nnc(C(F)(F)F)n4n3)CC2)cc1 [Example 170, 4-[[4-[3-(trifluoromethyl)-[1,2,4]triazolo[4,3-b]pyridazin-6-yl]-1,4-diazepan-1-yl]methyl]benzonitrile]
0.62 | N#Cc1cccc(CN2CCCN(c3ccc4nnc(C(F)(F)F)n4n3)CC2)c1 [Example 171, 3-[[4-[3-(trifluoromethyl)-[1,2,4]triazolo[4,3-b]pyridazin-6-yl]-1,4-diazepan-1-yl]methyl]benzonitrile]
0.81 | Fc1cccc(CN2CCCN(c3ccc4nnc(C(F)(F)F)n4n3)CC2)c1 [Example 172, 6-[4-[(3-fluorophenyl)methyl]-1,4-diazepan-1-yl]-3-(trifluoromethyl)-[1,2,4]triazolo[4,3-b]pyridazine]
0.68 | FC(F)(F)c1nnc2ccc(N3CCCN(Cc4cccc(Cl)c4)CC3)nn12 [Example 175, 6-[4-[(3-chlorophenyl)methyl]-1,4-diazepan-1-yl]-3-(trifluoromethyl)-[1,2,4]triazolo[4,3-b]pyridazine]
0.85 | FC(F)(F)c1nnc2ccc(N3CCCN(Cc4ccc(Cl)cc4)CC3)nn12 [Example 176, 6-[4-[(4-chlorophenyl)methyl]-1,4-diazepan-1-yl]-3-(trifluoromethyl)-[1,2,4]triazolo[4,3-b]pyridazine]
0.77 | Fc1ccc(CN2CCCN(c3ccc4nnc(C(F)(F)F)n4n3)CC2)cc1 [Example 177, 6-[4-[(4-fluorophenyl)methyl]-1,4-diazepan-1-yl]-3-(trifluoromethyl)-[1,2,4]triazolo[4,3-b]pyridazine]
0.88 | Cc1cccc(CN2CCCN(c3ccc4nnc(C(F)(F)F)n4n3)CC2)c1 [Example 178, 6-[4-[(3-methylphenyl)methyl]-1,4-diazepan-1-yl]-3-(trifluoromethyl)-[1,2,4]triazolo[4,3-b]pyridazine]
0.59 | FC(F)(F)c1cccc(CN2CCCN(c3ccc4nnc(C(F)(F)F)n4n3)CC2)c1 [Example 179, 3-(trifluoromethyl)-6-[4-[[3-(trifluoromethyl)phenyl]methyl]-1,4-diazepan-1-yl]-[1,2,4]triazolo[4,3-b]pyridazine]
2.1 | COc1ccc(CN2CCCN(c3ccc4nnc(C(F)(F)F)n4n3)CC2)cc1 [Example 181, 6-[4-[(4-methoxyphenyl)methyl]-1,4-diazepan-1-yl]-3-(trifluoromethyl)-[1,2,4]triazolo[4,3-b]pyridazine]
0.68 | FC(F)(F)c1cccc(CN2CCN(c3ccc4nnc(C(F)(F)F)n4c3)CC2)c1 [Example 185, 3-(trifluoromethyl)-6-[4-[[3-(trifluoromethyl)phenyl]methyl]piperazin-1-yl]-[1,2,4]triazolo[4,3-a]pyridine]
2.8 | FC(F)(F)c1ccc(CN2CCN(c3ccc4nnc(C(F)(F)F)n4c3)CC2)cc1 [Example 186, 3-(trifluoromethyl)-6-[4-[[4-(trifluoromethyl)phenyl]methyl]piperazin-1-yl]-[1,2,4]triazolo[4,3-a]pyridine]
4.7 | N#Cc1ccc(CN2CCN(c3ccc4nnc(C(F)(F)F)n4c3)CC2)cc1 [Example 187, 4-[[4-[3-(trifluoromethyl)-[1,2,4]triazolo[4,3-a]pyridin-6-yl]piperazin-1-yl]methyl]benzonitrile]
2.2 | N#Cc1cccc(CN2CCN(c3ccc4nnc(C(F)(F)F)n4c3)CC2)c1 [Example 188, 3-[[4-[3-(trifluoromethyl)-[1,2,4]triazolo[4,3-a]pyridin-6-yl]piperazin-1-yl]methyl]benzonitrile]
1.1 | Fc1cccc(CN2CCN(c3ccc4nnc(C(F)(F)F)n4c3)CC2)c1 [Example 189, 6-[4-[(3-fluorophenyl)methyl]piperazin-1-yl]-3-(trifluoromethyl)-[1,2,4]triazolo[4,3-a]pyridine]
0.79 | FC(F)(F)c1nnc2ccc(N3CCN(Cc4ccc(Cl)cc4)CC3)cn12 [Example 190, 6-[4-[(4-chlorophenyl)methyl]piperazin-1-yl]-3-(trifluoromethyl)-[1,2,4]triazolo[4,3-a]pyridine]
2.1 | Fc1ccc(CN2CCN(c3ccc4nnc(C(F)(F)F)n4c3)CC2)cc1 [Example 191, 6-[4-[(4-fluorophenyl)methyl]piperazin-1-yl]-3-(trifluoromethyl)-[1,2,4]triazolo[4,3-a]pyridine]
8.7 | COc1ccc(CN2CCN(c3ccc4nnc(C(F)(F)F)n4c3)CC2)cc1 [Example 192, 6-[4-[(4-methoxyphenyl)methyl]piperazin-1-yl]-3-(trifluoromethyl)-[1,2,4]triazolo[4,3-a]pyridine]

SMILES | DC50 [µM]
CCCCOc1cccc(CN2CCN(c3ccc4nnc(C(F)(F)F)n4n3)CC2)c1 [Example 157, 6-[4-[(3-butoxyphenyl)methyl]piperazin-1-yl]-3-(trifluoromethyl)-[1,2,4]triazolo[4,3-b]pyridazine] | 2.4
